{
  "source": "patent US20230044958A1",
  "about": "“METHOD OF TREATING VIRUS INFECTION USING A TLR7 AGONIST” (Hoffmann-La Roche Inc., priority 2019, published 2023)",
  "key": {"HBV [1]": {"test_system": "HBV", "experiment": "Treatment of HBV-infected patients with Compound (I), alone or in combination", "assay_type": "in vivo, human", "from_the_text": "(§1) In this invention, methods of the entire treatment comprising Compound (I) monotherapy or Compound (I) in combination with other anti-HBV drug(s) for 24-120 weeks were developed.\nFurthermore, treatment method of Compound (I) in combination with other anti-HBV drugs results in significant hepatitis B surface antigen (HBsAg) decline or loss. […] However, the method of treatment of this invention with Compound (I) can also induce robust HBV DNA and HBV RNA decline in such patients."}, "[2]": {"experiment": "Safety and tolerability of Compound (I) in chronic hepatitis B patients", "assay_type": "in vivo, human", "from_the_text": "as §1"}, "HBV [3]": {"test_system": "HBV", "conditions": "cited from earlier work"}, "[4]": {"conditions": "patients under the treatment methods of the invention"}},
  "data": [
    {"compound": "CC[C@H](OC(C)=O)[C@@H]1C[C@@H](O)[C@H](n2c(=O)sc3cnc(N)nc32)O1", "note": "[Compound (I), (1S)-1-[(2S,4R,5R)-5-(5-amino-2-oxo-thiazolo[4,5-d]pyrimidin-3-yl)-4-hydroxy-tetrahydrofuran-2-yl]propyl] acetate]", "values": [
      {"measurement": "hepatitis B surface antigen (HBsAg) decline or loss", "setting": "HBV [1]; Compound (I) in combination with other anti-HBV drugs", "value": "significant"},
      {"measurement": "HBV DNA decline", "setting": "HBV [1]; [4]", "value": "robust"},
      {"measurement": "HBV RNA decline", "setting": "HBV [1]; [4]", "value": "robust"},
      {"measurement": "safety and tolerability", "setting": "[2]", "value": "safe and well tolerated"}
    ]},
    {"compound": "CCCCOc1nc(N)c2c(n1)N(Cc1cccc(CN3CCCC3)c1)CC(=O)N2", "note": "[Vesatolimod]", "values": [
      {"measurement": "HBsAg decline", "setting": "HBV [3]; weekly dosing for 4, 8, 12 weeks, virally suppressed patients with chronic hepatitis B", "value": "did not show HBsAg decline"},
      {"measurement": "change in HBsAg after treatment", "setting": "HBV [3]; weekly dosing for 12 weeks in combination with tenofovir disoproxil fumarate, viremic CHB patients not on oral antiviral treatment", "value": "did not demonstrate any meaningful change in HBsAg"}
    ]}
  ]
}
